These results are taken from US6063562A (priority 1995, dated 2000).

One assay has as its system wild-type HIV-1. As to conditions: read-out: IC50 (50% inhibitory concentration), MT-4 cells, cited from earlier work.
In assay [1] the test system is AZT-resistant strain derived from wild-type HIV-1. The following applies: read-out: IC50 (50% inhibitory concentration); second passage of the AZT-resistant progeny, MT-4 cells; cited from earlier work.
In assay [2] the target is HIV-1 protease, wild type, expressed as part of truncated HIV-1 polyprotein (Human immunodeficiency virus type 1 group M subtype B, UniProt P04585). The assay is classed as cell-based.
From the text: Plasmid pART-2 was digested with Bgl II and Eco RI to obtain a nucleotide sequence coding for a portion of the HIV-1 polyprotein (i.e., the HIV-1 protease protein, the HIV-1 reverse transcriptase protein and a portion of the HIV-1 integrase protein). The isolated 2.3 kb fragment was then inserted into the pTrcHisC plasmid (obtained from Invitrogen, San Diego, Calif.), which had previously been digested with the same restriction enzymes, to yield the plasmid pL124.23. The pL124.23 plasmid contains upstream sequences coding for a series of six histidine residues fused to a gene 10 segment, all of which are in frame with the inserted fragment. An enterokinase cleavage recognition site is also located between gene 10 and the truncated polyprotein. The inserted sequences, as well as the described upstream sequences are all under control of a T7 promoter. The T7 polymerase in the host cell (Top 10, Invitrogen) is inducible with IPTG.

Read-outs that look alike come from different tables or passages of the source. Where only a bound is given, the exact number is not on record here.

Turning to `Nc1nc(=O)n([C@@H]2CS[C@H](CO)O2)cc1F` [FTC], the IC50 with wild-type HIV-1 (fourth passage of the wild-type progeny) was over 50 µM; in the assay with wild-type HIV-1 (passage 6 virus, tested at higher compound concentrations), over 250 µM; in assay [1] it was over 50 µM.
Consider `CC(C)(C)NC(=O)[C@@H]1CN(Cc2cccnc2)CCN1C[C@@H](O)C[C@@H](Cc1ccccc1)C(=O)N[C@H]1c2ccccc2C[C@H]1O` [L-735,524], for which, in assay [2], the “processing of the polyprotein by HIV protease” value is listed as “did not allow processing of the polyprotein”.
